From patent publication US20070010671A1, “Novel quinazoline derivatives and methods of treatment related to the use thereof” (priority 2003, published 2007)

Each compound was assayed against MCH receptor (Homo sapiens, UniProt Q99705) (assay: High throughput functional screening FLIPR/FDSS6000: inhibition of MCH-evoked intracellular Ca2+ changes). Conditions: class by percent of control at 10^-7 M or IC50.
Format: cell-based
Summary of the method: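 Fluo4 fluorescence (Ex 488 nm, Em 530 nm) tracked MCH-evoked [Ca2+]i transients over 290 s by FLIPR or FDSS. Cells carried a constitutively active, non-endogenous receptor version. Compounds were added 3 min before a 50 nM MCH challenge.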

“N-[(cis-4-{[4-(dimethylamino)quinazolin-2-yl]amino}cyclohexyl)methyl]-N′-(2-methoxy-5-nitrophenyl)urea [compound 508]” was tested. Which class did it give?
The class was 2 (Class 2: The value of percent of control at 10^−7 M was from 40% to 60% or the value of IC50 was from 50 nM to 200 nM.).

For CN(C)c1nc(N[C@H]2CC[C@@H](NC(=O)Nc3ccccc3C#N)CC2)nc2ccccc12 [compound 340], which class is on record?
The class was 3 (Class 3: The value of percent of control at 10^−7 M was more than 60% or the value of IC50 was more than 200 nM.).

For CN(C)c1nc(N[C@H]2CC[C@@H](CNC(=O)Nc3ccccc3OC(F)(F)F)CC2)nc2ccccc12 [compound 576], which class is on record?
The class was 3 (Class 3: The value of percent of control at 10^−7 M was more than 60% or the value of IC50 was more than 200 nM.).

Cc1cc(Cl)cc(Cl)c1NC(=S)NC[C@H]1CC[C@@H](Nc2nc(N(C)C)c3ccccc3n2)CC1 [compound 782, N-(2,4-dichloro-6-methylphenyl)-N′-[(cis-4-{[4-(dimethylamino)quinazolin-2-yl]amino}cyclohexyl)methyl]thiourea] was tested. Which class did it give?
The class was 2 (Class 2: The value of percent of control at 10^−7 M was from 40% to 60% or the value of IC50 was from 50 nM to 200 nM.).

For CN(C)c1nc(N[C@H]2CC[C@@H](CNC(=S)Nc3cc(Cl)c(Cl)cc3Cl)CC2)nc2ccccc12 [compound 668], which class is on record?
The class was 3 (Class 3: The value of percent of control at 10^−7 M was more than 60% or the value of IC50 was more than 200 nM.).

For Cc1cccc(CNC(=S)N[C@H]2CC[C@@H](Nc3nc(N(C)C)c4ccccc4n3)CC2)c1 [compound 310, N-(cis-4-{[4-(dimethylamino)quinazolin-2-yl]amino}cyclohexyl)-N′-(3-methylbenzyl)thiourea], which class is on record?
Its class is 2 (Class 2: The value of percent of control at 10^−7 M was from 40% to 60% or the value of IC50 was from 50 nM to 200 nM.).

For CN(C)c1nc(N[C@H]2CC[C@@H](NC(=O)Nc3ccsc3)CC2)nc2ccccc12 [compound 344], which class is on record?
The class was 3 (Class 3: The value of percent of control at 10^−7 M was more than 60% or the value of IC50 was more than 200 nM.).

CN(C)c1nc(N[C@H]2CC[C@@H](CNC(=O)Nc3ccccc3-c3ccccc3)CC2)nc2ccccc12 [compound 412, N-biphenyl-2-yl-N′-[(cis-4-{[4-(dimethylamino)quinazolin-2-yl]amino}cyclohexyl)methyl]urea] was tested. Which class did it give?
Its class is 2 (Class 2: The value of percent of control at 10^−7 M was from 40% to 60% or the value of IC50 was from 50 nM to 200 nM.).

Which class does the source give for CN(C)c1nc(N[C@H]2CC[C@@H](CNC(=S)Nc3ccc(Cl)cc3Cl)CC2)nc2ccccc12 [compound 589] here?
The class was 3 (Class 3: The value of percent of control at 10^−7 M was more than 60% or the value of IC50 was more than 200 nM.).

CSc1cccc(NC(=O)NC[C@H]2CC[C@@H](Nc3nc(N(C)C)c4ccccc4n3)CC2)c1 [compound 517, N-[(cis-4-{[4-(dimethylamino)quinazolin-2-yl]amino}cyclohexyl)methyl]-N′-[3-(methylthio)phenyl]urea] was tested. Which class did it give?
The class was 2 (Class 2: The value of percent of control at 10^−7 M was from 40% to 60% or the value of IC50 was from 50 nM to 200 nM.).

Which class does the source give for CN(C)c1nc(N[C@H]2CC[C@@H](CNC(=S)Nc3ccc4c(c3)OCCO4)CC2)nc2ccccc12 [compound 789] here?
The class was 3 (Class 3: The value of percent of control at 10^−7 M was more than 60% or the value of IC50 was more than 200 nM.).

CCOC(=O)[C@H](CC(C)C)NC(=O)NC[C@H]1CC[C@@H](Nc2nc(N(C)C)c3ccccc3n2)CC1 (relative stereo) [compound 435, ethyl N-({[(cis-4-{[4-(dimethylamino)quinazolin-2-yl]amino}cyclohexyl)methyl]amino}carbonyl)leucinate] was tested. Which class did it give?
The class was 1 (Class 1: The value of percent of control at 10^−7 M was less than 40% or the value of IC50 was less than 50 nM.).

How did the class turn out when CCCCc1ccc(NC(=S)N[C@H]2CC[C@@H](Nc3nc(N(C)C)c4ccccc4n3)CC2)c(C)c1 [compound 385] was run?
The class was 1 (Class 1: The value of percent of control at 10^−7 M was less than 40% or the value of IC50 was less than 50 nM.).

CN(C)c1nc(N[C@H]2CC[C@@H](CNC(=S)Nc3c(F)cc(F)cc3F)CC2)nc2ccccc12 [compound 671] was tested. Which class did it give?
Its class is 3 (Class 3: The value of percent of control at 10^−7 M was more than 60% or the value of IC50 was more than 200 nM.).

CN(C)c1nc(N[C@H]2CC[C@@H](CNC(=O)Nc3cccs3)CC2)nc2ccccc12 [compound 761] was tested. Which class did it give?
The class was 3 (Class 3: The value of percent of control at 10^−7 M was more than 60% or the value of IC50 was more than 200 nM.).

Which class does the source give for Cc1cc(Cl)ccc1NC(=S)NC[C@H]1CC[C@@H](Nc2nc(N(C)C)c3ccccc3n2)CC1 [compound 694] here?
Its class is 3 (Class 3: The value of percent of control at 10^−7 M was more than 60% or the value of IC50 was more than 200 nM.).

With CN(C)c1nc(N[C@H]2CC[C@@H](NC(=S)NCc3ccccc3F)CC2)nc2ccccc12 [compound 300] as the compound, how does the class read?
The class was 2 (Class 2: The value of percent of control at 10^−7 M was from 40% to 60% or the value of IC50 was from 50 nM to 200 nM.).

With Cc1ccc(NC(=S)NC[C@H]2CC[C@@H](Nc3nc(N(C)C)c4ccccc4n3)CC2)c(Br)c1 [compound 676] as the compound, how does the class read?
The class was 3 (Class 3: The value of percent of control at 10^−7 M was more than 60% or the value of IC50 was more than 200 nM.).

CN(C)c1nc(N[C@H]2CC[C@@H](CNC(=S)Nc3ccc(F)c(C(F)(F)F)c3)CC2)nc2ccccc12 [compound 660] was tested. Which class did it give?
Its class is 3 (Class 3: The value of percent of control at 10^−7 M was more than 60% or the value of IC50 was more than 200 nM.).

CCOc1ccccc1NC(=S)N[C@H]1CC[C@@H](Nc2nc(N(C)C)c3ccccc3n2)CC1 [compound 365, N-(cis-4-{[4-(dimethylamino)quinazolin-2-yl]amino}cyclohexyl)-N′-(2-ethoxyphenyl)thiourea] was tested. Which class did it give?
The class was 1 (Class 1: The value of percent of control at 10^−7 M was less than 40% or the value of IC50 was less than 50 nM.).

Which class does the source give for CN(C)c1nc(N[C@H]2CC[C@@H](CNC(=O)Nc3ccc4c(c3)Cc3ccccc3-4)CC2)nc2ccccc12 [compound 569] here?
The class was 3 (Class 3: The value of percent of control at 10^−7 M was more than 60% or the value of IC50 was more than 200 nM.).

For CCc1ccc(NC(=S)NC[C@H]2CC[C@@H](Nc3nc(N(C)C)c4ccccc4n3)CC2)cc1 [compound 629], which class is on record?
Its class is 3 (Class 3: The value of percent of control at 10^−7 M was more than 60% or the value of IC50 was more than 200 nM.).

Which class does the source give for CN(C)c1nc(N[C@H]2CC[C@@H](CNC(=S)Nc3ccc(Br)c(Cl)c3)CC2)nc2ccccc12 [compound 735] here?
The class was 3 (Class 3: The value of percent of control at 10^−7 M was more than 60% or the value of IC50 was more than 200 nM.).

Same assay, conditions: class by percent of control at 10^-7 M or by IC50; read-out: class

Cc1cccc(C)c1NC(=O)N[C@H]1CC[C@@H](Nc2nc(N(C)C)c3ccccc3n2)CC1 [compound 19, N-(cis-4-{[4-(dimethylamino)quinazolin-2-yl]amino}cyclohexyl)-N′-(2,6-dimethylphenyl)urea] was tested. Which IC50 did it give?
Its IC50 is under 50 nM.

With CCOC(=O)N[C@H]1CC[C@@H](Nc2nc(N(C)C)c3ccccc3n2)CC1 [compound 854] as the compound, how does the IC50 read?
Its IC50 is over 200 nM.

Which IC50 does the source give for CN(C)c1nc(N[C@H]2CC[C@@H](NC(=O)NC34CC5CC(CC(C5)C3)C4)CC2)nc2ccccc12 (relative stereo) [compound 5] here?
The IC50 was over 200 nM.

Which IC50 does the source give for Cc1ccccc1NC(=O)N[C@H]1CC[C@@H](Nc2nc(N(C)C)c3ccccc3n2)CC1 [compound 60, N-(cis-4-{[4-(dimethylamino)quinazolin-2-yl]amino}cyclohexyl)-N′-(2-methylphenyl)urea] here?
The IC50 was under 50 nM.

CN(C)c1nc(N[C@H]2CC[C@@H](CNC(=S)Nc3ccc(Oc4ccccc4)nc3)CC2)nc2ccccc12 [compound 821] was tested. Which IC50 did it give?
The IC50 was over 200 nM.

How did the IC50 turn out when CN(C)c1nc(N[C@H]2CC[C@@H](NC(=S)Nc3cc(F)ccc3F)CC2)nc2ccccc12 [compound 167] was run?
Its IC50 is over 200 nM.

How did the IC50 turn out when CC(C)c1cccc(C(C)C)c1NC(=O)N[C@H]1CC[C@@H](Nc2nc(N(C)C)c3ccccc3n2)CC1 [compound 68] was run?
Its IC50 is over 200 nM.

Same assay, conditions: class by percent of control at 10^−7 M or by IC50; read-out: class

How did the IC50 turn out when CN(C)c1nc(N[C@H]2CC[C@@H](NC(=O)COc3ccc(Cl)cc3Cl)CC2)nc2ccccc12 [Example 1083, 2-(2,4-dichlorophenoxy)-N-(cis-4-{[4-(dimethylamino)quinazolin-2-yl]amino}cyclohexyl)acetamide] was run?
The IC50 was 50 to 200 nM.

CN(C)c1nc(N[C@H]2CC[C@@H](C(=O)Nc3cccnc3Cl)CC2)nc2ccccc12 [Example 1197, cis-N-(2-chloropyridin-3-yl)-4-{[4-(dimethylamino)quinazolin-2-yl]amino}cyclohexanecarboxamide] was tested. Which IC50 did it give?
Its IC50 is over 200 nM.

For CN(C)c1nc(N[C@H]2CC[C@@H](NC(=O)c3ccnc(Oc4cccc(Cl)c4)c3)CC2)nc2ccccc12 [Example 1073, 2-(3-chlorophenoxy)-N-(cis-4-{[4-(dimethylamino)quinazolin-2-yl]amino}cyclohexyl)isonicotinamide], which IC50 is on record?
The IC50 was 50 to 200 nM.

CN(C)c1nc(N[C@H]2CC[C@@H](C(=O)NCc3ccc(F)cc3C(F)(F)F)CC2)nc2ccccc12 [Example 1174, cis-4-{[4-(dimethylamino)quinazolin-2-yl]amino}-N-[4-fluoro-2-(trifluoromethyl)benzyl]cyclohexanecarboxamide] was tested. Which IC50 did it give?
The IC50 was under 50 nM.

With COc1ccccc1NC(=O)NC[C@H]1CC[C@@H](Nc2nc(N(C)C)c3ccccc3n2)CC1 [Example 1015, N-[(cis-4-{[4-(dimethylamino)quinazolin-2-yl]amino}cyclohexyl)methyl]-N′-(2-methoxyphenyl)urea] as the compound, how does the IC50 read?
Its IC50 is 50 to 200 nM.

With CN(C)c1nc(N[C@H]2CC[C@@H](NC(=O)C(O)c3cccc(C(F)(F)F)c3)CC2)nc2ccccc12 (relative stereo) [Example 1112, N-(cis-4-{[4-(dimethylamino)quinazolin-2-yl]amino}cyclohexyl)-2-hydroxy-2-[3-(trifluoromethyl)phenyl]acetamide] as the compound, how does the IC50 read?
The IC50 was under 50 nM.

Which IC50 does the source give for CN(C)c1nc(N[C@H]2CC[C@@H](CNC(=O)[C@H](O)c3ccccc3)CC2)nc2ccccc12 [Example 1102, (2R)-N-[(cis-4-{[4-(dimethylamino)quinazolin-2-yl]amino}cyclohexyl)methyl]-2-hydroxy-2-phenylacetamide] here?
The IC50 was over 200 nM.
